Measured values from patent US20250170065A1, “THERAPEUTIC COMPOUNDS, FORMULATIONS, AND USE THEREOF” (priority 2022, published 2025).

Tests used:
[1] = in vivo
Procedure: Particle size reduction for TTI-101 by micronization and nano-milling provided poor bioavailability (e.g., 10-20 times lower bioavailability than a solution of TTI-101). Hot melt extrusion (HME) was used and the resulting dispersions were evaluated using DSC miscibility, DSC extrudability and rheology studies. Polymer systems tried include: Soluplus; Soluplus+Kolliphor RH40; Soluplus+Vitamin E TPGS; and PVPVA64+Kolliphor RH40.

Solubility of TTI-101 = type: physicochemical
Excerpt: The compound of Formula (I) (also referred to as TTI-101) is highly insoluble (“brick dust”). […] Furthermore, the compound of Formula (I) has a crystalline structure with high crystal-lattice energy, contributing to rapid precipitation or crystallization of the compound from solution. Its low solubility and high crystallinity have contributed to various difficulties in preparing formulations that are suitable for administration in human subjects. Current formulations are liquid formulations delivered via capsules. For example, a formulation of the compound of formula (I) dissolved in 60:40 Labrasol®/PEG400 and encapsulated into a hard gelatin capsule (unit dose: 36 mg), while showing encouraging results in 3 dose cohorts, was prevented from advancing to a fourth patient cohort (25.6 mg/kg/day as 12.8 mg/kg twice daily (BID) doses) because of an unacceptably high pill burden. For example, a 70 kg subject in Cohort 4 would require […] per day split into BID doses. […]

bioavailability lower than a solution of TTI-101 [1]: 10-20 times | solubility in aqueous solutions (Solubility of TTI-101): insoluble | solubility in most solvents (Solubility of TTI-101): relatively low solubility
SMILES: COc1ccc(S(=O)(=O)Nc2cc(-c3c(O)ccc4ccccc34)c(O)c3ccccc23)cc1 [TTI-101]
